Here are results for 16 compounds from patent US10219516B2, “Molecules having pesticidal utility, and intermediates, compositions, and processes, related thereto” (priority 2015, dated 2019).

SMILES strings stand for the structures. Read-outs that look alike come from different tables or passages of the source.

Holding throughout (format): in vivo
Assay [1] concerns Green Peach Aphid (Myzus persicae, MYZUPE). Put plainly: Bioassay on Green Peach Aphid (GPA), foliar spray on infested cabbage seedlings. The conditions noted are these: 72 h. The protocol: Certain molecules disclosed in this document were tested against GPA using procedures described in the following example. In the reporting of the results, the “GPA & YFM Rating Table” was used (See Table Section).
Cabbage seedlings grown in 3-inch pots, with 2-3 small (3-5 cm) true leaves, were used as test substrate. The seedlings were infested with 20-50 GPA (wingless adult and nymph stages) one day prior to chemical application. Four pots with individual seedlings were used for each treatment. Test molecules (2 mg) were dissolved in 2 mL of acetone/methanol (1:1) solvent, forming stock solutions of 1000 ppm test molecule. The stock solutions were diluted 5× with 0.025% Tween 20 in water to obtain the solution at 200 ppm test molecule. A hand-held aspirator-type sprayer was used for spraying a solution to both sides of […] leaves until runoff. Reference plants (solvent check) were sprayed with the diluent only containing 20% by volume of acetone/methanol (1:1) solvent. Treated plants were held in a holding room for three days at approximately 25° C. and ambient relative humidity (RH) prior to grading. Evaluation was conducted by counting the number of live aphids per plant under a microscope. Percent control was measured using Abbott's correction formula (W. S. Abbott, “A Method of Computing the Effectiveness of an Insecticide” 3. Econ. Entomol. 18 (1925), pp. 265-267) as follows. Corrected % Control=100*(X−Y)/X where X=No. of live aphids on solvent check plants and Y=No. of live aphids on treated plants. The results are indicated in the table entitled “Table ABC: Biological Results” (See Table Section).

Assay [2] relates to Beet Armyworm (Spodoptera exigua, LAPHEG). Put plainly: Bioassay on Beet Armyworm (BAW), 128-well diet tray assay. Summed up:
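Second instar larvae were exposed to diet treated at 50 μg/cm^2 for five to seven days at 25° C.; mortality was averaged over eight wells.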

Assay [3] deals with Cabbage Looper (Trichoplusia ni, TRIPNI). Description: Bioassay on Cabbage Looper (CL), 128-well diet tray assay. Conditions: Trichoplusia ni. Summed up:
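Test molecule is dissolved in 90:10 acetone-water and applied at 50 μg/cm^2 onto artificial diet, then dried. One to five second-instar larvae go into each of eight wells. Trays, sealed but vented, stay at 25° C., 14:10 light-dark, five to seven days, after which mortality is averaged.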

The subject of assay [4] is Yellow Fever Mosquito (Aedes aegypti, AEDSAE). Put plainly: Bioassay on Yellow Fever Mosquito (YFM), 96-well plate larval assay. The conditions noted are these: for YFM (Biological Results, rating): Species YFM (Yellow Fever Mosquito); for YFM rating: Yellow Fever Mosquito, 96-well plate larval assay. Summed up: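 Aedes aegypti larvae (about 1 day old) in liver-powder water were added to plates dispensed from DMSO master plates (4000 ppm stock) diluted with 90:10 water/acetone; six replicate plates per master. Lidded plates were held at room temperature for 3 days, then each well was scored for mortality.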

Where [5] appears, read: foliar, Species GPA (Green Peach Aphid), read-out: GPA (Biological Results, rating).
[6] abbreviates: Species BAW (Beet Armyworm), read-out: BAW (Biological Results, rating).
The mark [7] stands for this setting: Species CL (Cabbage Looper), read-out: CL (Biological Results, rating).
[8] abbreviates: Beet Armyworm, 128-well diet tray assay, read-out: BAW rating.
Setting [9] is: Cabbage Looper, 128-well diet tray assay, read-out: CL rating.

As for `O=C(Nc1cc(F)cc(F)c1)c1cc(NC(=O)[C@H]2[C@H](c3cc(Cl)cc(Cl)c3)C2(Cl)Cl)ccc1Cl` (relative stereo) [F154, trans-2-Chloro-5-(2,2-dichloro-3-(3,5-dichlorophenyl)cyclopropane-1-carboxamido)-N-(3,5-difluorophenyl)benzamide], in assay [1] (setting [5]), the pest or weed control at 200 µg/mL fell in the range of 80 to 100%. The pest or weed control at 50 µg/cm2 in assay [2] (setting [6]) and in assay [3] (setting [7]) was 50 to 100% in each case.

As for `COc1ccc(NC(=O)c2cc(NC(=O)[C@H]3[C@H](c4cc(Cl)cc(Cl)c4)C3(Cl)Cl)ccc2Cl)cc1` (relative stereo) [F146, trans-2-chloro-5-(2,2-dichloro-3-(3,5-dichlorophenyl)cyclopropane-1-carboxamido)-N-(4-methoxyphenyl)benzamide], the pest or weed control at 200 µg/mL in assay [1] (setting [5]) lay in the range of 80 to 100%. Moreover, the pest or weed control at 50 µg/cm2 in assay [2] (setting [6]) and in assay [3] (setting [7]) was 50 to 100% in each case.

As to `O=C(Nc1ccc(OC(F)(F)F)cc1)c1cc(NC(=O)[C@H]2[C@H](c3cc(Cl)cc(Cl)c3)C2(Cl)Cl)ccc1Cl` (relative stereo) [F147, trans-2-Chloro-5-(2,2-dichloro-3-(3,5-dichlorophenyl)cyclopropane-1-carboxamido)-N-(4-(trifluoromethoxy)phenyl)benzamide], the pest or weed control at 200 µg/mL in assay [1] (setting [5]) lay within 0 to 80%. Further, the pest or weed control at 50 µg/cm2 in assay [2] (setting [6]) and in assay [3] (setting [7]) was 50 to 100% in each case.

As for `Cc1cc(Cl)cc([C@H]2[C@H](C(=O)Nc3ccc(Cl)c(C(=O)N(C)c4ccc(F)cc4)c3)C2(Cl)Cl)c1` (relative stereo) [F117, trans-2-Chloro-5-(2,2-dichloro-3-(3-chloro-5-methylphenyl)cyclopropane-1-carboxamido)-N-(4-fluorophenyl)-N-methylbenzamide], in assay [1] (setting [5]), the pest or weed control at 200 µg/mL lay within 0 to 80%. Further, the pest or weed control at 50 µg/cm2 in assay [2] (setting [6]) and in assay [3] (setting [7]) was 50 to 100% throughout.

On to `CC(C)(C)OC(=O)Nc1cc(C(F)(F)F)cc(NC(=O)c2cc(NC(=O)[C@H]3[C@H](c4cc(Cl)cc(Cl)c4)C3(Cl)Cl)ccc2Cl)n1` (relative stereo) [F507, tert-Butyl (6-(2-chloro-5-(trans-2,2-dichloro-3-(3,5-dichlorophenyl)cyclopropane-1-carboxamido)benzamido)-4-(trifluoromethyl)pyridin-2-yl)carbamate], for which the pest or weed control at 200 µg/mL in assay [1] (Green Peach Aphid, foliar spray on cabbage seedlings, read-out: GPA rating) lay in the range of 0 to 80%.

As to `O=C(Nc1c(F)cccc1F)c1cc(NC(=O)[C@H]2[C@H](c3ccc(C(F)(F)F)cc3)C2(Cl)Cl)ccc1Cl` (relative stereo) [F83, trans-2-Chloro-5-(2,2-dichloro-3-(4-(trifluoromethyl)phenyl)cyclopropane-1-carboxamido)-N-(2,6-difluorophenyl)benzamide], the pest or weed control at 50 µg/cm2 in assay [2] (setting [6]) and in assay [3] (setting [7]) was 50 to 100% throughout. Further, the “YFM (Biological Results, rating)” value in assay [4] is reported as “A (80-100)”.

Turning to `Cc1cc(NC(=O)c2cc(NC(=O)[C@H]3[C@H](c4cc(Cl)cc(Cl)c4)C3(Cl)Cl)ccc2Cl)cnc1F` (relative stereo) [F396, 2-Chloro-5-(trans-2,2-dichloro-3-(3,5-dichlorophenyl)cyclopropane-1-carboxamido)-N-(6-fluoro-5-methylpyridin-3-yl)benzamide], the pest or weed control at 50 µg/cm2 in assay [2] (setting [8]) and in assay [3] (setting [9]) was 50 to 100% in each case. Also, the YFM rating entry in assay [4] is reported as “A (80-100)”.

As to `O=C(Nc1ccc(OCC(F)(F)F)cc1)c1cc(NC(=O)[C@H]2[C@H](c3cc(Cl)cc(Cl)c3)C2(Cl)Cl)ccc1Cl` (relative stereo) [PF62, trans-2-Chloro-5-(2,2-dichloro-3-(3,5-dichlorophenyl)cyclopropane-1-carboxamido)-N-(4-(2,2,2-trifluoroethoxy)phenyl)benzamide], the pest or weed control at 50 µg/cm2 in assay [2] (setting [8]) and in assay [3] (setting [9]) was 50 to 100% throughout. Moreover, the YFM rating result in assay [4] is listed as “A (80-100)”.

With `COC(=O)CNc1ccc(NC(=O)c2cc(NC(=O)[C@H]3[C@H](c4cc(Cl)cc(Cl)c4)C3(Cl)Cl)ccc2Cl)c(C)c1` (relative stereo) [F288, trans-methyl (4-(2-chloro-5-(2,2-dichloro-3-(3,5-dichlorophenyl)cyclopropane-1-carboxamido)benzamido)-3-methylphenyl)glycinate], the pest or weed control at 50 µg/cm2 in assay [2] (setting [6]) and in assay [3] (setting [7]) was 50 to 100% throughout. Further, in assay [4], the “YFM (Biological Results, rating)” value is “A (80-100)”.

Turning to `CC(=O)Nc1ccc(NC(=O)c2cc(NC(=O)[C@H]3[C@H](c4ccc(F)c(Cl)c4)C3(Cl)Cl)ccc2Cl)cc1` (relative stereo) [F260, trans-N-(4-Acetamidophenyl)-2-chloro-5-(2,2-dichloro-3-(3-chloro-4-fluorophenyl)cyclopropane-1-carboxamido)benzamide], the pest or weed control at 50 µg/cm2 in assay [2] (setting [6]) and in assay [3] (setting [7]) was 50 to 100% each time. Further, the “YFM (Biological Results, rating)” value in assay [4] is “A (80-100)”.

Turning to `CNc1ccc(NC(=O)c2cc(NC(=O)[C@H]3[C@H](c4cc(Cl)cc(Cl)c4)C3(Cl)Cl)ccc2Cl)cc1C` (relative stereo) [F206, trans-2-Chloro-5-(2,2-dichloro-3-(3,5-dichlorophenyl)cyclopropane-1-carboxamido)-N-(3-methyl-4-(methylamino)phenyl)benzamide], the pest or weed control at 50 µg/cm2 in assay [2] (setting [6]) and in assay [3] (setting [7]) was 50 to 100% throughout. Moreover, in assay [4], the “YFM (Biological Results, rating)” value was “A (80-100)”.

As for `C=C(F)c1c(F)cnc(NC(=O)c2cc(NC(=O)[C@H]3[C@H](c4cc(Cl)cc(Cl)c4)C3(Cl)Cl)ccc2Cl)c1F` (relative stereo) [F394, 2-Chloro-5-(trans-2,2-dichloro-3-(3,5-dichlorophenyl)cyclopropane-1-carboxamido)-N-(3,5-difluoro-4-(1-fluorovinyl)pyridin-2-yl)benzamide], the pest or weed control at 50 µg/cm2 in assay [2] (setting [8]) and in assay [3] (setting [9]) was 50 to 100% throughout. The YFM rating entry in assay [4] is given as “A (80-100)”.

As to `CC(=O)Nc1ccc(NC(=O)c2cc(NC(=O)[C@H]3[C@H](c4cc(Cl)cc(Cl)c4)C3(Cl)Cl)ccc2Cl)c(C)c1` (relative stereo) [PF158, trans-N-(4-Acetamido-2-methylphenyl)-2-chloro-5-(2,2-dichloro-3-(3,5-dichlorophenyl)cyclopropane-1-carboxamido)benzamide], the pest or weed control at 50 µg/cm2 in assay [2] (setting [8]) and in assay [3] (setting [9]) was 50 to 100% in each case. For the same compound, the YFM rating result in assay [4] is recorded as “A (80-100)”.

In the case of `O=C(Nc1ccc(Br)c(F)n1)c1cc(NC(=O)[C@H]2[C@H](c3cc(Cl)cc(Cl)c3)C2(Cl)Cl)ccc1Cl` (relative stereo) [F357, N-(5-Bromo-6-fluoropyridin-2-yl)-2-chloro-5-(trans-2,2-dichloro-3-(3,5-dichlorophenyl)cyclopropane-1-carboxamido)benzamide], the pest or weed control at 50 µg/cm2 in assay [2] (setting [6]) and in assay [3] (setting [7]) was 50 to 100% each time. Further, the “YFM (Biological Results, rating)” value in assay [4] is recorded as “A (80-100)”.

Regarding `C=C(F)c1ccc(NC(=O)c2cc(NC(=O)[C@H]3[C@H](c4cc(Cl)cc(Cl)c4)C3(Cl)Cl)ccc2Cl)nc1F` (relative stereo) [F398, 2-chloro-5-(trans-2,2-dichloro-3-(3,5-dichlorophenyl)cyclopropane-1-carboxamido)-N-(6-fluoro-5-(1-fluorovinyl)pyridin-2-yl)benzamide], the pest or weed control at 50 µg/cm2 in assay [2] (setting [8]) and in assay [3] (setting [9]) was 50 to 100% throughout. In addition, the YFM rating entry in assay [4] is on record as “A (80-100)”.

As to `Nc1cc(F)ccc1NC(=O)c1cc(NC(=O)[C@H]2[C@H](c3cc(Cl)c(Cl)c(Cl)c3)C2(Cl)Cl)ccc1Cl` [F577, N-(2-Amino-4-fluorophenyl)-2-chloro-5-((1R,3R)-2,2-dichloro-3-(3,4,5-trichlorophenyl)cyclopropane-1-carboxamido)benzamide], the pest or weed control at 50 µg/cm2 in assay [2] (setting [8]) and in assay [3] (setting [9]) was 50 to 100% throughout. For the same compound, the YFM rating result in assay [4] is reported as “A (80-100)”.
